According to patent publication US8980933B2, “Combretastatin analogs for use in the treatment of cancer” (Universitat Bayreuth, priority 2010, dated 2015):
Where “and” joins values, the source holds several entries; their conditions need not be identical. Equal values may be shown once.

What was measured:
[1] = system: 518A2 cells; assay: ROS generation, NBT assay, 518A2; assay type: cell-based, human; conditions: 50 μM, relative to untreated controls (1%), mean ± SD
Protocol: (§1) The generation of reactive oxygen species (ROS) in tumor cells is a sign of cellular stress resulting in severe damage of cellular components such as DNA, lipids or proteins.
(§2) For the NBT assay, HL-60 cells (0.5·10^6/mL) were plated in 96-well tissue culture plates, and test compounds were added after 24 h incubation at 37° C. to achieve a final concentration of 50 μM. […] After removal of the cell medium by centrifugation, the cells in each well were resuspended in 100 μL 0.1% NBT, and the plates were placed in the incubator for 1 h. The reduced NBT was solubilized with 100 μl 2 M KOH and 130 μl DMSO for 30 min. The absorbance was measured for each well at 630 and 405 nm (background) using an ELISA plate reader. The adherent 518A2 cells (0.5·10^4/mL) were seeded out in 96-well tissue culture plates after trypsinization and incubation for 24 h at 37° C. to allow attachment, then treated similarly, only that the medium was removed prior to incubation with NBT for 4 h. All experiments were carried out in quadruplicate.

[2] = system: 1411HP germ cell tumor cell line; assay: SRB-cytotoxicity assay, 1411HP; assay type: cell-based, human; conditions: for effect on multi-drug resistance of 1411HP cells: compared with cisplatin
Protocol: (§3) The cytotoxic activity of 5b was established by standard colorimetric tests (SRB- and MTT-assays) against various tumor cell lines of different entities. For the SRB cytotoxicity assay, dose-response curves of the testicular germ cell tumor cell lines exposed to drug concentrations of 0.001-10 μM were established using the sulforhodamine-B (SRB) microcuiture colorimetric assay (Papazisis et al. Optimization of the sulforhodamine B colorimetric assay. J. Immunol. Methods 1997, 208, 151-158) and performed as described in: Müller et al. Failure of activation of caspase-9 induces a higher threshold for apoptosis and cisplatin resistance in testicular cancer. Cancer Res. 2003, 63, 513-521. Briefly, cells were seeded into 96-well plates on day 0, at cell densities previously determined to ensure exponential cell growth during the period of the experiment. On day 1, cells were treated with the drugs dissolved in medium to give the appropriate concentrations for indicated times and the percentage of surviving cells relative to untreated controls was determined on day 5.

[3] = system: KB-V1/Vbl cervical carcinoma cells; assay: MTT cell growth inhibition, KB-V1/Vbl; assay type: cell-based, human; conditions: Pgp-overexpressing KB-V1 cells
Protocol: The MCF-7/Topo cells were grown in E-MEM medium (Sigma) supplemented with 2.2 g/L NaHCO3, 110 mg/L sodium pyruvate and 5% FCS. The cells were maintained in a moisture-saturated atmosphere (5% CO2) at 37° C. in 75-mL culture flasks (Nunc, Wiesbaden, Germany). They were serially passaged following trypsinisation by 0.05% trypsin/0.02% EDTA (PAA laboratories, Clbe, Germany). Mycoplasma contamination was routinely monitored, and only mycoplasma-free cultures were used.
HL-60 leukemia cells (5×10^5/mL), and cells (5×10^4/mL) of 518A2 melanoma, HT-29 colon, KB-V1/Vbl cervix and MCF-7/Topo breast carcinoma were seeded out in 96-well tissue culture plates and cultured for 24 h. […] Blank and solvent controls were treated identically. MTT in phosphate buffered saline (5 mg/mL) was added to a final concentration of 0.05% (HL-60, 518A2) or 0.1% (HT-29, KB-V1/Vbl, MCF-7/Topo). After 2 h the formazan precipitate was dissolved in 10% sodium dodecylsulfate in DMSO containing 0.6% acetic acid in the case of the HL-60 cells. For the adherent 518A2, KB-V1/Vbl, MCF-7/Topo and HT-29 cells the microplates were swiftly turned to discard the medium before adding the solvent mixture. The microplates were gently shaken in the dark for 30 min and absorbance at 570 nm and 630 nm (background) was measured with an ELISA plate reader. All experiments were carried out in quadruplicate; the percentage of viable cells was calculated as the mean±SD with controls set to 100%.

[4] = system: H12.1 germ cell tumor, 1411HP germ cell tumor, A2780 ovarian carcinoma, HT29 colon carcinoma, DLD1 colon carcinoma, HCT8 colon carcinoma; assay: SRB-cytotoxicity assay in a panel of tumor cell lines; assay type: cell-based, human; conditions: H12.1, 1411HP
Protocol: as §3
The compounds 5b, 6b, 5f and 6f as well as the reference compound 25f (Wang et al.) were furthermore subjected to an SRB-cytotoxicity assay in a panel of tumor cell lines (H12.1 germ cell tumor, 1411HP germ cell tumor, A2780 ovarian carcinoma, HT29 colon carcinoma, DLD1 colon carcinoma, HCT8 colon carcinoma).

[5] = system: HUVEC cells; assay: Tube formation assay on matrigel; assay type: cell-based; conditions: 7.72 ng/mL
Protocol: 35 μL of media:matrigel (1:1) were added into wells of a 96-well plate and incubated at 37° C. for 30 minutes. A trypsinized HUVEC cell suspension was set to 800.000 cells/mL. In another 96-well plate 25 μL of the compound stock were serially diluted with 25 μL of media. 25 μL of compound dilutions and 25 μL of cell suspension were added to the matrigel coated 96-well plate and the cells were incubated over night. As a negative control, methanol was used as in place of the compound dilutions.

[6] = system: 518A2 cells; assay: Mitochondrial membrane assay (JC-1), 518A2; assay type: cell-based, human; conditions: 5 μM, red/green fluorescence ratio relative to untreated controls (100%), mean ± SD
Protocol: Values represent means of four independent experiments±standard deviation.
Changes in mitochondrial membrane potential were determined by the Mitochondrial Membrane Detection Kit (Stratagene, La Jolla, Calif., USA) according to the manufacturer's procedure. 72 h following treatment with 5 μM of the test compounds, cell samples were centrifuged at 400 g for 5 min. The pellets were resuspended in 500 μL diluted JC-1 solution, incubated at 37° C. for 15 min (HL-60) and then centrifuged again for 5 min at 400 g. After washing, the pellets were resuspended in 100 μL PBS and transferred into the wells of a black 96-well plate. The red (λex=585 nm, λem=590 nm) and green (λex=510 nm, λem=527 nm) fluorescence intensities were measured and their ratio was calculated.

[7] = system: HL-60 cells; assay: ROS generation, NBT assay, HL-60; assay type: cell-based, human; conditions: 50 μM, relative to untreated controls (1%), mean ± SD
Protocol: as §1, §2

[8] = system: A2780 ovarian carcinoma xenografts; assay: A2780 ovarian carcinoma xenograft model; assay type: in vivo, mouse

COc1ccc(-c2c(-c3cc(Br)c(OC)c(OC)c3)ncn2C)cc1N [compound 6b, 1-methyl-5-(3-amino-4-methoxyphenyl)-4-(3-bromo-4,5-dimethoxyphenyl)-imidazole]
NBT Reduction [%] in 518A2 cells after 24 h [1]: 1.5 ± 0.2% | effect on multi-drug resistance of 1411HP cells [2]: breach of the multi-drug resistance of 1411HP cells | IC50 concentration [3]: single-digit nanomolar range | in vitro cytotoxicity compared to 25f [4]: superior activity as compared to compound 25f | inhibition of tube formation [5]: pronounced inhibition of tube formation | Intact mitochondria [%] in 518A2 cells after 72 h [6]: 80 ± 9% | NBT Reduction [%] in HL-60 cells after 24 h [7]: 3.8 ± 0.3% | vascular disrupting effect [8]: vascular disrupting activity

COc1ccc(-c2c(-c3cc(Cl)c(OC)c(OC)c3)ncn2C)cc1N [compound 5b, 1-methyl-5-(3-amino-4-methoxyphenyl)-4-(3-chloro-4,5-dimethoxyphenyl)-imidazole]
NBT Reduction [%] in 518A2 cells after 24 h [1]: 1.8 ± 0.2% | IC50 ([2]; Homo sapiens, 1411HP (chemoresistant), 96 h): 30 to 50 nM | effect on multi-drug resistance of 1411HP cells [2]: breach of the multi-drug resistance of 1411HP cells | IC50 concentration [3]: single-digit nanomolar range | in vitro cytotoxicity compared to 25f [4]: superior activity as compared to compound 25f | inhibition of tube formation [5]: did not yield a correspondingly strong inhibition at this concentration | Intact mitochondria [%] in 518A2 cells after 72 h [6]: 80 ± 9% | NBT Reduction [%] in HL-60 cells after 24 h [7]: 4.4% and 4.4 ± 0.6% | vascular disrupting effect [8]: vascular disrupting activity
